# Laboratory results: patent publication US20240027453A1, “METHOD FOR DETECTION AND QUANTITATIVE MONITORING OF INFECTIONS WITH HERPESVIRUSES” (The Trustees of Princeton University, priority 2020, published 2024)
# Where two headings read alike, the source gives them in different places.
# Tested on: HCMV
# Assay type: cell-based
# Conditions: FIG. 7A
# Method in brief: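 Viral protein levels come from parallel reaction monitoring on a Q Exactive HF: trypsin digests of infected-cell lysates, quantified as summed transition areas, normalized to host control peptides, averaged across peptides per protein. Cells were MRC5 fibroblasts, infected at MOI 3 (HSV-1 or HCMV) after 12 h compound pretreatment, with re-dosing every 24 h.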
# 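Wherever UL32 (P08318) protein level is given: each peptide scaled to its average across all runs.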
# 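Wherever UL38 (P16779) protein level is given: each peptide scaled to its average across all runs.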
# 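Wherever UL78 (P16751) protein level is given: each peptide scaled to its average across all runs.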
# 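Wherever UL95 (P16801) protein level is given: each peptide scaled to its average across all runs.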
structure (smiles),measurement,setting,value
Oc1ccc(C=Cc2cc(O)cc(O)c2)cc1 [Resveratrol],CVC2 (P16726) protein level,"timepoint 24, DE",0.02416
same,DBP (P17147) protein level,"timepoint 24, DE",0.2603
same,HELI (P16736) protein level,"timepoint 24, DE",0.5239
same,IR01 (P09710) protein level,"timepoint 24, DE",0.2395
same,NEC2 (P16791) protein level,"timepoint 24, DE",0.05031
same,TRM1 (P16724) protein level,"timepoint 24, DE",0.0496
same,UL4 (P17146) protein level,"timepoint 24, DE",0.02792
same,UL26 (P16762) protein level,"timepoint 24, DE",0.08745
same,UL32 (P08318) protein level,"timepoint 24, DE",0.02724
same,UL34 (P16812) protein level,"timepoint 24, DE",0.1096
same,UL38 (P16779) protein level,"timepoint 24, DE",0.9691
same,UL44 (P16790) protein level,"timepoint 24, DE",0.0591
same,UL48 (P16785) protein level,"timepoint 24, DE",0.02194
same,UL54 (P08546) protein level,"timepoint 24, DE",0.6295
same,UL71 (P16823) protein level,"timepoint 24, DE",0.5252
same,UL78 (P16751) protein level,"timepoint 24, DE",1.896
same,UL84 (P16727) protein level,"timepoint 24, DE",0.1406
same,UL95 (P16801) protein level,"timepoint 24, DE",0.06756
same,UL96 (P16787) protein level,"timepoint 24, DE",0.4727
same,UL97 (P16788) protein level,"timepoint 24, DE",0.3652
same,UL98 (P16789) protein level,"timepoint 24, DE",0.2979
same,UL102 (P16827) protein level,"timepoint 24, DE",0.889
same,UL104 (P16735) protein level,"timepoint 24, DE",0.07335
same,UL112/UL113 (P17151) protein level,"timepoint 24, DE",0.3601
same,UL114 (P16769) protein level,"timepoint 24, DE",0.8008
same,UL119/UL118 (P16739) protein level,"timepoint 24, DE",0.5596
same,UL128 (P16837) protein level,"timepoint 24, DE",0.08035
same,US8 (P09730) protein level,"timepoint 24, DE",0.9856
same,US9 (P09729) protein level,"timepoint 24, DE",1.12
same,US12 (P09721) protein level,"timepoint 24, DE",1.673
same,US13 (P09720) protein level,"timepoint 24, DE",0.5476
same,US14 (P09719) protein level,"timepoint 24, DE",0.3883
same,US22 (P09722) protein level,"timepoint 24, DE",0.3379
same,US23 (P09701) protein level,"timepoint 24, DE",1.209
same,US24 (P09700) protein level,"timepoint 24, DE",1.019
same,US34 (P09709) protein level,"timepoint 24, DE",2.475
same,gB (P06473) protein level,"timepoint 24, DE",0.2035
same,IRS1 (P09715) protein level,"timepoint 24, IE",0.53
same,TRS1 (P09695) protein level,"timepoint 24, IE",0.2907
same,UL13 (P16755) protein level,"timepoint 24, IE",2.216
same,UL36 (P16767) protein level,"timepoint 24, IE",1.36
same,UL37 (P16778) protein level,"timepoint 24, IE",0.9797
same,UL122 (P19893) protein level,"timepoint 24, IE",0.06584
same,UL123 (P13202) protein level,"timepoint 24, IE",1.053
same,CVC1 (P16799) protein level,"timepoint 24, L",0.1335
same,IR11 (P16809) protein level,"timepoint 24, L",0.4092
same,MCP (P16729) protein level,"timepoint 24, L",0.005554
same,TRM2 (P16792) protein level,"timepoint 24, L",0.01236
same,UL22A (P16845) protein level,"timepoint 24, L",0.06878
same,UL25 (P16761) protein level,"timepoint 24, L",0.02173
same,UL29 (P16764) protein level,"timepoint 24, L",0.6989
same,UL31 (P16848) protein level,"timepoint 24, L",0.4434
same,UL43 (P16781) protein level,"timepoint 24, L",0.0621
same,UL52 (P16793) protein level,"timepoint 24, L",0.02488
same,UL80 (P16753) protein level,"timepoint 24, L",0.03642
same,UL82 (P06726) protein level,"timepoint 24, L",0.2024
same,UL88 (P16731) protein level,"timepoint 24, L",0.05174
same,UL94 (P16800) protein level,"timepoint 24, L",0.1027
same,UL99 (P13200) protein level,"timepoint 24, L",0.04805
same,UL103 (P16734) protein level,"timepoint 24, L",0.3861
same,UL117 (P16770) protein level,"timepoint 24, L",0.7439
same,gH (P12824) protein level,"timepoint 24, L",0.08651
same,gL (P16832) protein level,"timepoint 24, L",0.03756
same,gM (P16733) protein level,"timepoint 24, L",0.04047
same,gN (P16795) protein level,"timepoint 24, L",0.1854
same,DUT (P16824) protein level,"timepoint 24, LL",0.3815
same,IR12 (P16810) protein level,"timepoint 24, LL",0.1305
same,TRX1 (P16783) protein level,"timepoint 24, LL",0.007402
same,TRX2 (P16728) protein level,"timepoint 24, LL",0.006335
same,UL24 (P16760) protein level,"timepoint 24, LL",0.115
same,UL40 (P16780) protein level,"timepoint 24, LL",0.6816
same,UL47 (P16784) protein level,"timepoint 24, LL",0.01314
same,UL49 (P16786) protein level,"timepoint 24, LL",0.3801
same,UL69 (P16749) protein level,"timepoint 24, LL",0.259
same,UL70 (P17149) protein level,"timepoint 24, LL",0.2151
same,UL83 (P06725) protein level,"timepoint 24, LL",0.04868
same,UL132 (P69338) protein level,"timepoint 24, LL",0.1519
same,US15 (P09718) protein level,"timepoint 24, LL",2.089
same,CVC2 (P16726) protein level,"timepoint 48, DE",0.04895
same,DBP (P17147) protein level,"timepoint 48, DE",0.3174
same,HELI (P16736) protein level,"timepoint 48, DE",0.7035
same,IR01 (P09710) protein level,"timepoint 48, DE",0.3325
same,NEC2 (P16791) protein level,"timepoint 48, DE",0.1347
same,RIR1 (P16782) protein level,"timepoint 48, DE",0.1467
same,TRM1 (P16724) protein level,"timepoint 48, DE",0.1744
same,UL4 (P17146) protein level,"timepoint 48, DE",0.1071
same,UL26 (P16762) protein level,"timepoint 48, DE",0.09224
same,UL32 (P08318) protein level,"timepoint 48, DE",0.06407
same,UL34 (P16812) protein level,"timepoint 48, DE",0.1265
same,UL35 (P16766) protein level,"timepoint 48, DE",0.02653
same,UL38 (P16779) protein level,"timepoint 48, DE",0.8069
same,UL44 (P16790) protein level,"timepoint 48, DE",0.09657
same,UL48 (P16785) protein level,"timepoint 48, DE",0.05393
same,UL54 (P08546) protein level,"timepoint 48, DE",0.9464
same,UL71 (P16823) protein level,"timepoint 48, DE",0.3661
same,UL78 (P16751) protein level,"timepoint 48, DE",1.07
same,UL84 (P16727) protein level,"timepoint 48, DE",0.1489
same,UL95 (P16801) protein level,"timepoint 48, DE",0.2914
same,UL96 (P16787) protein level,"timepoint 48, DE",0.3861
same,UL97 (P16788) protein level,"timepoint 48, DE",0.3732
same,UL98 (P16789) protein level,"timepoint 48, DE",0.3412
same,UL102 (P16827) protein level,"timepoint 48, DE",1.27
same,UL104 (P16735) protein level,"timepoint 48, DE",0.1091
same,UL112/UL113 (P17151) protein level,"timepoint 48, DE",0.4545
same,UL114 (P16769) protein level,"timepoint 48, DE",1.322
same,UL119/UL118 (P16739) protein level,"timepoint 48, DE",0.6367
same,UL128 (P16837) protein level,"timepoint 48, DE",0.03596
same,US8 (P09730) protein level,"timepoint 48, DE",1.343
same,US9 (P09729) protein level,"timepoint 48, DE",2.242
same,US12 (P09721) protein level,"timepoint 48, DE",0.8964
same,US13 (P09720) protein level,"timepoint 48, DE",0.5923
same,US14 (P09719) protein level,"timepoint 48, DE",0.2304
same,US22 (P09722) protein level,"timepoint 48, DE",0.5371
same,US23 (P09701) protein level,"timepoint 48, DE",0.5982
same,US24 (P09700) protein level,"timepoint 48, DE",0.4857
same,US34 (P09709) protein level,"timepoint 48, DE",2.409
same,gB (P06473) protein level,"timepoint 48, DE",0.1991
same,IRS1 (P09715) protein level,"timepoint 48, IE",0.8671
same,TRS1 (P09695) protein level,"timepoint 48, IE",0.7123
same,UL13 (P16755) protein level,"timepoint 48, IE",0.6646
same,UL36 (P16767) protein level,"timepoint 48, IE",1.045
same,UL37 (P16778) protein level,"timepoint 48, IE",1.143
